Experimental data as given in patent US20250195513A1, “DEGRADATION OF IRAK4 BY CONJUGATION OF IRAK4 INHIBITORS WITH E3 LIGASE LIGAND AND METHODS OF USE” (BeiGene, Ltd., priority 2022, published 2025).
Read-outs that look alike come from different tables or passages of the source.

Target: T1, IRAK4 (Homo sapiens, UniProt Q9NWZ3)
T1 construct: endogenous in cells; host or cells: Karpas299
T1 sequence (Q9NWZ3 1-460): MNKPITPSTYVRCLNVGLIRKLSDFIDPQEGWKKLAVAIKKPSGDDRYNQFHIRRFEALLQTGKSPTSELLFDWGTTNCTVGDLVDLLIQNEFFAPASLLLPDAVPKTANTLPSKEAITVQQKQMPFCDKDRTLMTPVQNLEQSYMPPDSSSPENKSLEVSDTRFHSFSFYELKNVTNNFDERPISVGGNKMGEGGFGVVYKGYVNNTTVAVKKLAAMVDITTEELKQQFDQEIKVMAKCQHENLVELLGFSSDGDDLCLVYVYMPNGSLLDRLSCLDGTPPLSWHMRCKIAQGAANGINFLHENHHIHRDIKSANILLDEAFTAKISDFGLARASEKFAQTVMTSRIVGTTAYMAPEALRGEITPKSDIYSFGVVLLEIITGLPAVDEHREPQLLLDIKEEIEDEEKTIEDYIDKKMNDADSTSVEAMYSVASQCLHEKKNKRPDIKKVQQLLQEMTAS
Assay: IRAK4 Degradation Assay (Karpas299, HTRF/TR-FRET)
Format: cell-based
Settings: Karpas-299 cells; for Dmax: maximum percentage of degradation
Summary of the method: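 Compound potency as DC50 (IC50) came from four-parameter fits of percent IRAK4 degradation. IRAK4 was measured by HTRF (665/620 nm) in lysates of Karpas299 cells seeded at 0.2 million per well. Cells had been treated with compound dilutions for 5 or 24 h.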

[1] = 24 h treatment, read-out: IRAK4 in Karpas-299 (24 h) Dmax (%)
[2] = 24 h treatment, read-out: IRAK4 in Karpas-299 (24 h) DC50
[3] = 5 h treatment, read-out: IRAK4 in Karpas-299 (5 h) Dmax (%)
[4] = 5 h treatment, read-out: IRAK4 in Karpas-299 (5 h) DC50

Row | Structure (SMILES) | Dmax [1] [%] | DC50 [2] [nM] | Dmax [3] [%] | DC50 [4] [nM]
1 | NC(=O)c1nn(-c2ccc(N3CCN(C(=O)[C@@H]4CCN(c5cc(F)c([C@H]6CCC(=O)NC6=O)c(F)c5)C4)CC3)nc2)cc1NC(=O)c1coc(-c2ccnc(NCC(F)(F)F)c2)n1 [Example 166, N-(3-carbamoyl-1-(6-(4-((R)-1-(4-((R)-2,6-dioxopiperidin-3-yl)-3,5-difluorophenyl)pyrrolidine-3-carbonyl)piperazin-1-yl)pyridin-3-yl)-1H-pyrazol-4-yl)-2-(2-((2,2,2-trifluoroethyl)amino)pyridin-4-yl)oxazole-4-carboxamide] | 96 | 2.6 |  | 
2 | O=C1CC[C@H](c2c(F)cc(N3CC(C(=O)N4CCN([C@H]5CC[C@H](n6cc7cc(NC(=O)c8cccc(C(F)(F)F)n8)c(C(=O)N[C@H]8C[C@H](CO)C8)cc7n6)CC5)CC4)C3)cc2F)C(=O)N1 [Example 167, 2-((1r,4R)-4-(4-(1-(4-((R)-2,6-dioxopiperidin-3-yl)-3,5-difluorophenyl)azetidine-3-carbonyl)piperazin-1-yl)cyclohexyl)-N-((1r,3R)-3-(hydroxymethyl)cyclobutyl)-5-(6-(trifluoromethyl)picolinamido)-2H-indazole-6-carboxamide] | 99 | 0.8 | 94 | 5.3
3 | CCC(C)c1cc(-c2nc(C(=O)Nc3cn([C@H]4CC[C@H](N5CCN(C(=O)[C@@H]6CCN(c7cc(F)c([C@H]8CCC(=O)NC8=O)c(F)c7)C6)CC5)CC4)nc3C(F)F)co2)ccn1 (stereo partly drawn) [Example 170, 2-(2-(sec-butyl)pyridin-4-yl)-N-(3-(difluoromethyl)-1-((1R,4r)-4-(4-((R)-1-(4-((R)-2,6-dioxopiperidin-3-yl)-3,5-difluorophenyl)pyrrolidine-3-carbonyl)piperazin-1-yl)cyclohexyl)-1H-pyrazol-4-yl)oxazole-4-carboxamide] | 96 | 6.8 |  | 
4 | COc1cc2nn([C@H]3CC[C@H](CN4CCN(C(=O)[C@@H]5CCN(c6cc(F)c(N7CCC(=O)NC7=O)c(F)c6)C5)CC4)CC3)cc2cc1NC(=O)c1cccn(C2CC2)c1=O [Example 171, 1-cyclopropyl-N-(2-((1R,4r)-4-((4-((R)-1-(4-(2,4-dioxotetrahydropyrimidin-1(2H)-yl)-3,5-difluorophenyl)pyrrolidine-3-carbonyl)piperazin-1-yl)methyl)cyclohexyl)-6-methoxy-2H-indazol-5-yl)-2-oxo-1,2-dihydropyridine-3-carboxamide] | 95 | 10 |  | 

Now from value to compound:

Row | Dmax [1] [%] | DC50 [2] [nM] | Dmax [3] [%] | DC50 [4] [nM] | Structure (SMILES)
5 | 100 | 1.3 | 87 | 5.2 | O=C1CC[C@H](c2c(F)cc(N3CC[C@@H](C(=O)N4CCN([C@H]5CC[C@H](n6cc7cc(NC(=O)c8cccc(C(F)(F)F)n8)c(C(=O)N[C@H]8C[C@H](CO)C8)cc7n6)CC5)CC4)C3)cc2F)C(=O)N1 [Example 168, 2-((1R,4R)-4-(4-((R)-1-(4-((R)-2,6-dioxopiperidin-3-yl)-3,5-difluorophenyl)pyrrolidine-3-carbonyl)piperazin-1-yl)cyclohexyl)-N-((1r,3R)-3-(hydroxymethyl)cyclobutyl)-5-(6-(trifluoromethyl)picolinamido)-2H-indazole-6-carboxamide]
6 | 99 | 4.3 | 95 | 17 | [2H]C([2H])([2H])Oc1cc2nn([C@H]3CC[C@H](N4CCN(C(=O)[C@@H]5CCN(c6cc(F)c([C@H]7CCC(=O)NC7=O)c(F)c6)C5)CC4)CC3)cc2cc1NC(=O)c1cccc(C(F)(F)F)n1 [Example 169, N-(2-((1R,4r)-4-(4-((R)-1-(4-((R)-2,6-dioxopiperidin-3-yl)-3,5-difluorophenyl)pyrrolidine-3-carbonyl)piperazin-1-yl)cyclohexyl)-6-(methoxy-d3)-2H-indazol-5-yl)-6-(trifluoromethyl)picolinamide]
